Results: patent US20220056040A1, “NOVEL 3-(2-BROMO-4-ALKYNYL-6-ALKOXYPHENYL)-3-PYRROLIN-2-ONES AND THEIR USE AS HERBICIDES” (Bayer Aktiengesellschaft, priority 2019, published 2022)

Key:
Type in all cases: in vivo
Alopecurus myosuroides [1] = assay: Pre-emergence herbicidal effect; details: 80 g/ha, visual score after 3 weeks vs untreated controls
Text: (§1) Seeds of monocotyledonous and dicotyledonous weed plants and crop plants are laid out in sandy loam soil in wood-fiber pots and covered with soil. The compounds of the invention, formulated in the form of wettable powders (WP) or as emulsion concentrates (EC), are then applied to the surface of the covering soil as aqueous suspension or emulsion at a water application rate equating to 600 to 800 L/ha with addition of 0.2% wetting agent. After the treatment, the pots are placed in a greenhouse and kept under good growth conditions for the trial plants. The damage to the test plants is scored visually after a test period of 3 weeks by comparison with untreated controls (herbicidal activity in percent (%): 100% activity=the plants have died, 0% activity=like control plants).

Avena fatua = assay: Pre-emergence herbicidal effect; details: 80 g/ha, visual score after 3 weeks vs untreated controls
Text: as §1

Digitaria sanguinalis [2] = assay: Pre-emergence herbicidal effect; details: 80 g/ha, visual score after 3 weeks vs untreated controls
Text: as §1

Echinochloa crus-galli [3] = assay: Pre-emergence herbicidal effect; details: 80 g/ha, visual score after 3 weeks vs untreated controls
Text: as §1

Lolium rigidum [4] = assay: Pre-emergence herbicidal effect; details: 80 g/ha, visual score after 3 weeks vs untreated controls
Text: as §1

Setaria viridis [5] = assay: Pre-emergence herbicidal effect; details: 80 g/ha, visual score after 3 weeks vs untreated controls
Text: as §1

Alopecurus myosuroides [6] = assay: Post-emergence herbicidal effect; details: 80 g/ha, post-emergence at one-leaf stage, visual score after about 3 weeks
Description: (§2) Seeds of monocotyledonous and dicotyledonous weed and crop plants are laid out in sandyloam soil in wood-fiber pots, covered with soil and cultivated in a greenhouse under good growth conditions. 2 to 3 weeks after sowing, the test plants are treated at the one-leaf stage. The compounds of the invention, formulated in the form of wettable powders (WP) or as emulsion concentrates (EC), are then sprayed onto the green parts of the plants as aqueous suspension or emulsion at a water application rate equating to 600 to 800 l/ha with addition of 0.2% wetting agent. After the test plants have been left to stand in the greenhouse under optimal growth conditions for about 3 weeks, the action of the preparations is assessed visually in comparison to untreated controls (herbicidal action in percent (%): 100% activity=the plants have died, 0% activity=like control plants).

Digitaria sanguinalis [7] = assay: Post-emergence herbicidal effect; details: 80 g/ha, post-emergence at one-leaf stage, visual score after about 3 weeks
Description: as §2

Echinochloa crus-galli [8] = assay: Post-emergence herbicidal effect; details: 80 g/ha, post-emergence at one-leaf stage, visual score after about 3 weeks
Description: as §2

Hordeum murinum = assay: Post-emergence herbicidal effect; details: 80 g/ha, post-emergence at one-leaf stage, visual score after about 3 weeks
Description: as §2

Lolium rigidum [9] = assay: Post-emergence herbicidal effect; details: 80 g/ha, post-emergence at one-leaf stage, visual score after about 3 weeks
Description: as §2

Setaria viridis [10] = assay: Post-emergence herbicidal effect; details: 80 g/ha, post-emergence at one-leaf stage, visual score after about 3 weeks
Description: as §2

SMILES | Pre-emergence action ALOMY (herbicidal activity in percent) (Alopecurus myosuroides [1]) [%] | Pre-emergence action AVEFA (herbicidal activity in percent) (Avena fatua) [%] | Pre-emergence action DIGSA (herbicidal activity in percent) (Digitaria sanguinalis [2]) [%] | Pre-emergence action ECHCG (herbicidal activity in percent) (Echinochloa crus-galli [3]) [%] | Pre-emergence action LOLRI (herbicidal activity in percent) (Lolium rigidum [4]) [%] | Pre-emergence action SETVI (herbicidal activity in percent) (Setaria viridis [5]) [%] | Post-emergence action against ALOMY (herbicidal action in percent) (Alopecurus myosuroides [6]) [%] | Post-emergence action against DIGSA (herbicidal action in percent) (Digitaria sanguinalis [7]) [%] | Post-emergence action against ECHCG (herbicidal action in percent) (Echinochloa crus-galli [8]) [%] | Post-emergence action against HORMU (herbicidal action in percent) (Hordeum murinum) [%] | Post-emergence action against LOLRI (herbicidal action in percent) (Lolium rigidum [9]) [%] | Post-emergence action against SETVI (herbicidal action in percent) (Setaria viridis [10]) [%]
C=CCOC1CCC2(CC1)NC(=O)C(c1c(Br)cc(C#CC)cc1OC)=C2O (stereo not drawn) [Example 1.3.01] | 100 | 100 | 100 | 90 | 100 | 100 | 100 | 100 | 100 | 100 | 100 | 100
C=CCOC1CCC2(CC1)NC(=O)C(c1c(Br)cc(C#CC)cc1OC)=C2OC(=O)C(C)C (stereo not drawn) [Example 1.3.04] | 90 | 90 | 100 | 100 | 100 | 100 | 90 | 100 | 100 | 100 | 100 | 100
